Test results as given in US5250700A, “Phenyl pyrazolidinones as bronchodilators and anti-inflammatory agents” (American Home Products Corporation, priority 1992, dated 1993).
Counter-ions that a name gives are not always drawn.

Test system: PDE IV
Experiment: Inhibition of PDE IV isolated from canine tracheal muscle (cAMP metabolism)
Format: biochemical
Details: canine trachealis PDE IV; for IC50: 1 μM 3H-cAMP, 10 μM CI-930, 30° C., pH 7.8, reduction expressed relative to 10 μM rolipram; for inhibition of PDE IV (percentage): at 10^-5 (concentration unit not given), percentage of the reduction induced by 10 μM rolipram
Method: The following assay is employed to assess the ability of the compound of the invention to inhibit PDE IV. A solution containing PDE IV is prepared from canine tracheal muscle as follows: The dog is euthanized with an overdose of euthanasia while under anesthesia induced by a 33 mg/kg IV bolus of Nembutal. The trachealis muscle is removed, cleaned of connective tissue, and minced thoroughly. Three to four grams of tissue is then homogenized in Trim-HCl buffer (pH 7.8) using a Polytron. The homogenate is then centrifuged at 25,000×g (4° C.) for 30 minutes. The supernatant is decanted and filtered through four layers of gauze, and applied to a 40 cm×2 cm DEAE-Sepharose column that is equilibrated with Trim-HCl buffer (pH 7.8). The column is then washed with an additional 240 mL of buffer to remove unbound proteins. […] Each fraction is assayed for cAMP- and cGMP- metabolizing PDE activity. Fractions eluting at approximately 0.6 M Na-acetate, and containing CAMP but not CGMP metabolic activity are pooled and used as a PDE stock solution for assaying PDE IV inhibitory activity. […] CI-930 is included as an inhibitor of the cyclic GMP-sensitive, cyclic AMP-selectivePDE (PDE III) that is also present in the PDE IV stock solution when prepared as described above.

Structure (SMILES)	IC50 [nM]	inhibition of PDE IV (percentage) [%]
COc1ccc(C2CC(=O)N(C(=O)/C=C/c3cncc(Br)c3)N2C)cc1OC1CCCC1 (stereo not drawn) [Example 33]	81	–
COc1ccc(C2CC(=O)N(C(=O)NCCc3cccn3C)N2C)cc1OC1CCCC1 (stereo not drawn) [Example 40, 3-(3-Cyclopentyloxy-4-methoxyphenyl)-2-methyl-5-oxo-pyrazolidine-1-carboxylic acid 2-(1-methyl-1H-pyrrol-2-yl) ethylamide]	190	–
COc1ccc(C2CC(=O)N(C(=O)NCc3ccccc3)N2C)cc1OC1CCCC1 (stereo not drawn) [Example 17, 3-[3-(cyclopentyloxy)-4-methoxyphenyl]-2-methyl-5-oxo-N-(phenylmethyl)-1-pyrazolidinecarboxamide hydrochloride]	36	–
COc1ccc(C2CC(=O)NN2CC(=O)O)cc1OC1CCCC1 (stereo not drawn) [Example 7]	–	39
COc1ccc(C2CC(=O)NN2C(N)=O)cc1OC1CCCC1 (stereo not drawn) [Example 5, 5-[3-(Cyclopentyloxy)-4-methoxyphenyl]-3-oxo-1-pyrazolidinecarboxamide]	–	39
COc1ccc(C2CC(=O)NN2)cc1OC1CCCC1 (stereo not drawn) [Example 1, 5-[3-(Cyclopentyloxy)-4-methoxyphenyl]-3-pyrazolidinone]	340	–
CCNC(=O)N1C(=O)CC(c2ccc(OC)c(OC3CCCC3)c2)N1C (stereo not drawn) [Example 15, 3-[3-(cyclopentyloxy)-4-methoxylphenyl]-N-ethyl-2-methyl-5-oxo-1-pyrazolidinecarboxamide hydrochloride, hydrate]	49	–

Further compounds by falling IC50, results first:

IC50 [nM]	Structure (SMILES)	inhibition of PDE IV (percentage) [%]
680	COc1ccc(C2CC(=O)NN2C)cc1OC1CCCC1 (stereo not drawn) [Example 2, 5-[3--(Cyclopentyloxy)-4-methoxyphenyl]-1-methyl-3-pyrazolidinone]	–
460	CNC(=O)N1C(=O)CC(c2ccc(OC)c(OC3CCCC3)c2)N1C (stereo not drawn) [Example 9, 3-F3-(Cyclopentyloxy)-4-methoxyphenyl]-2-methyl-5-oxo-N-methyl-1-pyrazolidinecarboxamide, hemihidrate]	–
420	COc1ccc(-c2cc(=O)n(C(=O)NCc3ccccn3)n2C)cc1OC1CCCC1 [Example 12, 3-[3-(cyclopentyloxy)-4-methoxyphenyl]-2.5-dihydro-2-methyl-5-oxo-N-(2-pyridinylmethyl)-1H-pyrazole-1-carboxamide]	–
380	COc1ccc(-c2cc(=O)n(C(N)=O)n2C)cc1OC1CCCC1 [Example 11, 3-[3-(cyclopentyloxy)-4-methoxylphenyl]-2.5-dihydro-2-methyl-5-oxo-1H-pyrazole-1-carboxamide]	–
320	COc1ccc(C2CC(=O)N(C(N)=O)N2Cc2ccccc2)cc1OC1CCCC1 (stereo not drawn) [Example 23]	–
210	COc1ccc(C2CC(=O)N(C(=O)Nc3ccc(F)cc3)N2C)cc1OC1CCCC1 (stereo not drawn) [Example 22]	–
160	COc1ccc(C2CC(=O)N(CCCc3cccnc3)N2C)cc1OC1CCCC1 (stereo not drawn) [Example 29, 5-[3(cyclopentyloxy)-4-methoxyphenyl]-1-methyl-2-[3-(3-pyridinyl)propyl]-3-pyrazolidinone quarter dichloromethane]	–
85	COc1ccc(C2CC(=O)N(C(=O)NCc3cccnc3)N2C)cc1OC1CCCC1 (stereo not drawn) [Example 24, 3-[3-(cyclopentyloxy)-4-methoxyphenyl]-2-methyl-5-oxo-N-(3-pyridinylmethyl)-1-pyrazolidine carboxamide]	–
58	COc1ccc(C2CC(=O)NN2Cc2ccccc2)cc1OC1CCCC1 (stereo not drawn) [Example 34, 5-[3-(cyclopentyloxy)-4-methoxyphenyl]-1-(phenylmethyl)-3-pyrazolidinone]	–
50	COc1ccc(C2CC(=O)N(C/C=C/c3cncc(Br)c3)N2C)cc1OC1CCCC1 (stereo not drawn) [Example 30, 2-[(E)-3-(5-bromo-3-pyridinyl)-2-propenyl]-5-[3-(cyclopentyloxy)-4-methoxyphenyl]-1-methyl-3-pyrazolidinone hemi(dichloromethane)]	–
18	COc1ccc(C2CC(=O)N(C(=O)N[C@@H](C)c3cccc4ccccc34)N2C)cc1OC1CCCC1 (single isomer, unassigned) [13 B]	–
